{
  "source": "patent US20180228853A1",
  "about": "(priority 2015, published 2018)",
  "key": {"[1]": {"tested_on": "H1N1 virus strain A/PR/8/34", "assay": "microbe, parasite or virus in culture", "assay_type": "cell-based, Influenza A (H1N1) virus", "conditions": "MDCK cells"}, "H1N1 virus particles": {"tested_on": "H1N1 virus particles", "assay": "Direct binding assay to H1N1 virus particles (DART TOF-MS)", "parameters": "species or system Influenza A (H1N1) virus", "method": "Further, direct binding of test biomarkers in HSRx 351 to influenza virus and hemagglutinin were evaluated using the methods described in Roscheck Jr 2009. […] The methodology used is described in Roschek Jr 2009.\nViral Particles—Briefly, H1N1 virus particles were incubated with HSRx 351 or synthetic biomarkers 6 or 7 analog, to allow binding of the compounds within HSRx 351. After incubation, unbound compounds were removed by washing the virus particles three times through a 100 kDa molecular weight cut off membrane filter (Amicon 100 kDa filter, Ultracel PL-100; Millipore Corp. Billerica, Mass.) with phosphate buffered saline (PBS). The virus particles were then collected and fixed in 100% EtOH. The fixed virus particles and the washed fractions containing the unbound chemicals were collected and analyzed directly by DART TOF-MS for comparison."}, "[2]": {"tested_on": "flu and/or flu like symptoms", "conditions": "10 day regimen, 30 subjects per group"}, "[3]": {"tested_on": "influenza or influenza-like illness", "assay": "Randomized, single-blind clinical study, treatment of influenza or influenza-like illness in combination with Tamiflu", "assay_type": "in vivo, human", "method": "Subjects were randomized and placed on a treatment regimen of five days. Group C contained 29 subjects that received 75 mg of Tamiflu® (Oseltamivir Phosphate) in capsule form two times a day for five days. Group D contained 29 subjects that received 75 mg of Tamiflu® (Oseltamivir Phosphate) in capsule form and two 175 mg lozenges of HSRx 351 two times a day for 5 days.\nSubjects were also instructed to record any adverse events.\nStatistical Analysis/Results—A survival analysis was performed to compare over time the Influenza symptom functions of groups C and D. The time dependent event for which survival and hazard functions were calculated was the final data collection visit for each subject. A Generalized Linear Mixed Model was run to test the hypothesis of fewer adverse events in the combination treatment Group D versus Tamiflu® (Oseltamivir phosphate) only treatment groups C. Parameter estimates such as beta weights and R2 were evaluated along with a P value significance level set at 5%."}, "[4]": {"conditions": "Influenza A virus, read-out: IC50"}, "[5]": {"conditions": "Influenza A virus, read-out: IC50 (μg/mL)"}, "[6]": {"conditions": "preliminary statistical results"}},
  "note": "Read-outs that look alike come from different tables or passages of the source.",
  "data": [
    {"compound": "3-Hydroxyflavonone [Biomarker 7 analog]", "values": [
      {"measurement": "IC50 (μg/mL)", "setting": "[1]", "result": "2.8 and μg/mL"},
      {"measurement": "IC50", "setting": "[1]; read-out: IC50", "result": 8.7, "unit": "µM"},
      {"measurement": "binding to H1N1 virus particles (enrichment in the fixed virus samples over the washed fractions)", "setting": "H1N1 virus particles", "result": "bind H1N1 virus particles"}
    ]},
    {"compound": "NC12CC3CC(CC(C3)C1)C2", "note": "[Amantadine, amantadine]", "values": [
      {"measurement": "IC50", "setting": "[1]; [4]", "result": 27, "unit": "µM"},
      {"measurement": "IC50", "setting": "[1]; [5]", "result": 4.1, "unit": "µg/mL"}
    ]},
    {"compound": "CCOC(=O)C1=C[C@@H](OC(CC)CC)[C@H](NC(C)=O)[C@@H](N)C1", "note": "[Oseltamivir, oseltamivir]", "values": [
      {"measurement": "IC50", "setting": "[1]; [4]", "result": 0.32, "unit": "µM"},
      {"measurement": "IC50", "setting": "[1]; [5]", "result": 0.1, "unit": "µg/mL"}
    ]},
    {"compound": "CCOC(=O)C1=C[C@@H](OC(CC)CC)[C@H](NC(C)=O)[C@@H](N)C1", "note": "[Tamiflu ®, Oseltamivir Phosphate]", "values": [
      {"measurement": "medically related adverse events reported", "setting": "[2]", "result": "Five"},
      {"measurement": "Adverse events attributed to study product", "setting": "[3]; 29 subjects per group", "result": "4 number of subjects"},
      {"measurement": "At least one symptom worsened by end of study", "setting": "[3]; 29 subjects per group", "result": "6 number of subjects"},
      {"measurement": "Multiple symptoms worsened by end of study", "setting": "[3]; 29 subjects per group", "result": "3 number of subjects"},
      {"measurement": "Symptoms failed to improve by end of study", "setting": "[3]; 29 subjects per group", "result": "2 number of subjects"},
      {"measurement": "Composite VAS assessment exceeding baseline VAS", "setting": "[3]; five day treatment, preliminary results", "result": "baseline VAS = 126"},
      {"measurement": "% Average Reduction, Aches and pains", "setting": "[3]; [6]", "result": 64.46, "unit": "%"},
      {"measurement": "% Average Reduction, Composite", "setting": "[3]; [6]", "result": 63.83, "unit": "%"},
      {"measurement": "% Average Reduction, Degree of coughing", "setting": "[3]; [6]", "result": 67.74, "unit": "%"},
      {"measurement": "% Average Reduction, Fever reduction", "setting": "[3]; [6]", "result": 85.38, "unit": "%"},
      {"measurement": "% Average Reduction, Frequency of coughing", "setting": "[3]; [6]", "result": 50.38, "unit": "%"},
      {"measurement": "% Average Reduction, Mucus discharge in the respiratory tract", "setting": "[3]; [6]", "result": 54.63, "unit": "%"},
      {"measurement": "% Average Reduction, Nasal congestion", "setting": "[3]; [6]", "result": 66.35, "unit": "%"},
      {"measurement": "% Average Reduction, Quality of sleep", "setting": "[3]; [6]", "result": 57.89, "unit": "%"}
    ]}
  ]
}
